Where two headings read alike, the source gives them in different places. Some results are limits rather than exact numbers.

For data set [1] the following is noted: liver extracts, −20° C., after a week; cited from earlier work.
Data set [2] relates to dPANK/fbl RNAi treated Drosophila S2 cells. Briefly: dPANK/fbl RNA interference in Drosophila S2 cells, rescue by CoA or 4′-phosphopantetheine. It counts as cell-based. To be noted: compound added to the medium. Here is the method:
Drosophila S2 Cell Culture, RNA Interference, and CoA and 4′-phosphopantetheine treatment: Drosophila Schneider's S2 cells were maintained at 25° C. in Schneider's Drosophila medium (Invitrogen) supplemented with 10% heat inactivated fetal calf serum (Gibco) and antibiotics (penicillin/streptomycin, Invitrogen) under laboratory conditions. Synthesis of RNAi constructs and RNA interference (dsRNA) treatment was carried out as described previously (Siudeja K et al, EMBO Mol Med 3, 755-766 (2011)). Non-relevant (human gene; hMAZ) dsRNA was used as control. The cells were incubated for 4 days to induce an efficient knock-down. Cells were then subcultured, with or without CoA (Sigma-Aldrich, Cat. No: C4780—which is used for all the experiments wherever stated below) or 4′-phosphopantetheine (PPanSH) at different concentrations and were maintained for additional 3 days until analysis for rescue efficiency of the compounds was performed. The stock solutions of compounds were made in sterile water and stored in −20° C. until use.
(§1) Drosophila S2 Cell Immunofluorescence Staining: For immunofluorescence Drosophila S2 cells were seeded on Poly-L-Lysine coated (Sigma-Aldrich) glass microscope slides and allowed to settle for 45 min. Cells were fixed with 3.7% formaldehyde (Sigma Aldrich) for 20 min, washed briefly with PBS+0.1% Triton-X-100 (Sigma Aldrich) and permeabilized with PBS+0.2% Triton-X-100 for 20 min. The slides were incubated in primary antibody (rabbit anti-AcLys, Cell Signaling Cat No: 9441, 1:500) to visualize histone acetylation levels in PBS+0.1% Triton-X-100 overnight and after an additional washing step in PBS+0.1% Triton-X-100 they were incubated in secondary goat anti-rabbit-Alexa488 antibody (Molecular Probes) for two hours at room temperature (RT). F-actin was detected with Rhodamin-Phalloidin (20 U/ml)(Invitrogen) and DNA by staining with DAPI (0.2 ug/ml) (Thermo Scientific). Finally the samples were mounted in 80% glycerol and analyzed using a Leica fluorescence microscope with Leica software. Adobe Photoshop and Illustrator (Adobe Systems Incorporated, San Jose, Calif., USA) were used for image assembly.

For data set [3], the system named is COASY down-regulated HEK293 cells. Briefly: Knock-down of COASY by siRNA in HEK293 cells with CoA. Format: cell-based, human. To be noted: CoA added to the medium. Here is the method:
Knock-down of COASY by siRNA in mammalian HEK293 cells: HEK293 were maintained as described above. HEK293 were transfected with 200 nM COASY siRNA (GE Healthcare human COASY 80347 smartpool Cat no: M-006751-00-0010) or non-targeting siRNA (GE Healthcare Cat no: D-001206-13-20) using lipofectamine 2000 (Invitrogen) 4 h after transfection CoA was added in a final concentration of 25 uM. Cells were cultured for 3 days and then harvested for HPLC analysis of total CoA and PPanSH levels and Western blot (histone acetylation) as described below.
Western blot analysis and Antibodies: For Western blot analysis, cells were collected and washed with phosphate buffer saline (PBS), followed by centrifugation. The cells were lysed and sonicated in 1X Laemmli Sample Buffer and boiled for 5 min with 5% β-mercaptoethanol (Sigma). Protein content was determined using DC protein assay (BioRad). Equal amounts of protein were loaded on a 10 or 12.5% SDS-PAGE gel, transferred onto PVDF membranes and blocked with 5% milk in PBS/0.1% Tween, followed by overnight incubation with primary antibodies. […] Appropriate HRP-conjugated secondary antibodies (Amersham) were used and detection was performed using enhanced chemi-luminescence (Pierce cat nog: 32106) and Amersham hyperfilm (GE Healthcare). Band intensities were quantified with Image-studio software.

Another data set deals with Drosophila S2 cells. Briefly: HoPan treatment of Drosophila S2 cells in combination with CoA or 4′-phosphopantetheine. It counts as cell-based. Conditions: HoPan treated S2 cells. Here is the method: HoPan treatment of Drosophila S2 Cell in combination with CoA or 4′-phosphopantetheine treatment: Drosophila Schneider's S2 cells were maintained at standard conditions as explained above. Cells in the exponential phase of growth were used for all the experiments. Different indicated concentrations of CoA or 4′-phosphopantetheine (deuterium labelled PPanSH(D4) or unlabeled PPanSH) were added to S2 cells either in the presence or absence of 0.5 mM HoPan (Zhou Fang Pharm Chemical, China) for 48 h. Similarly, Drosophila S2 cells were treated with different concentrations of PPanSH(D4) at either 25° C. or 4° C. and cells were then harvested at various time points to access transport of PPanSH(D4). Stable isotope labelled PPanSH containing 4 deuterium atoms was purchased from Syncom (Groningen, The Netherlands) as a sodium salt (chemical structure is provided in FIG. 13A). As a read out cell count, intracellular total CoA and PPanSH levels (both labelled and unlabeled levels wherever appropriate) and histone acetylation levels were analyzed as explained below.
as §1

Data set [4] can be described thus: Conversion of CoA in human serum by HPLC. Format: in vitro ADME. The source says:
(§2) The conversion of CoA to 4′-phosphopantetheine was further investigated in mouse serum and in human serum.

Data set [5] is described as follows: Conversion of CoA in mouse serum by HPLC. Format: in vitro ADME.
Excerpt: as §2

Data set [6] concerns Drosophila w1118 control fly line. Briefly: Drosophila HoPan toxicity and CoA rescue experiment (eclosion). It counts as in vivo. To be noted: CoA added to the food of the larvae. The source says: Drosophila HoPan Toxicity and CoA Rescue Experiment: One week old w1118 flies (in the ratio 10 females and 5 males) were kept in vials containing standard fly food with or without HoPan and CoA at indicated concentrations. The flies were allowed to lay eggs for 2 days, after which the adults were discarded. The resulting offspring were allowed to develop. The numbers of flies which eclosed were counted to evaluate HoPan toxicity and CoA rescue efficiency.

On to `CC(C)(COP(=O)(O)OP(=O)(O)OC[C@H]1O[C@@H](n2cnc3c(N)ncnc32)[C@H](O)[C@@H]1OP(=O)(O)O)[C@@H](O)C(=O)NCCC(=O)NCCS` [CoA, Coenzyme A], for which the “CoA degrades to” value in data set [1] is 50%. Besides, the “CoA, share of the initial concentration still present” value (3 h) is given as greater than 95%. Also, the “conversion of CoA in serum” value (bovine (fetal calf)) is “converted into 4′-phosphopantetheine”, the “conversion of CoA in serum” value in data set [4] is “converted to 4′-phosphopantetheine” and the “conversion of CoA in serum” value in data set [5] was “converted to 4′-phosphopantetheine”. Also, the CoA degraded (bovine (fetal calf), 30 min) turned out to be 90%. Moreover, in data set [2], the “cell count of dPANK/fbl RNAi treated S2 cells” value is listed as “rescued the cell count in a concentration-dependent manner”. Besides, in data set [2] (immunofluorescence), the “histone (protein) acetylation of dPANK/fbl RNAi treated S2 cells” value is reported as “rescued”. In data set [3], the “rescue of COASY RNAi-induced decrease in intracellular CoA levels” value was “neither rescued”. For the same compound, in the data set with Drosophila S2 cells (compound added to the culture medium, HPLC), the “intracellular concentration of CoA” value was “restored the intracellular concentration of CoA”. The “rescue of HoPan-induced decrease in cell count” value in the data set on Drosophila S2 cells (compound added to the medium) was “rescued”. Further, the “rescue of HoPan-induced histone acetylation defect” value in the data set with Drosophila S2 cells (compound added to the medium) is “rescued”. Also, the “intracellular levels of 4′-phosphopantetheine” value in the data set with Drosophila S2 cells (external supplementation, HPLC) is “significantly increased”. The “rescue of HoPan-induced phenotype (larval lethality, eclosion rate)” value in data set [6] is on record as “fully rescued”.
